According to US20250129054A1 (Terran Biosciences Inc., priority 2022, published 2025):
Structures can show the parent of a compound that is named as a salt.

Experiment: Serial tail vein bleed PK study in SD rats: methylone measured in plasma after IV or oral methylone or oral methylone prodrugs
Assay type: in vivo, Sprague Dawley rats
Conditions: 10 mg/kg, rat
Protocol: A pharmacokinetic (PK) study was performed in three male Sprague-Dawley (SD) rats following intravenous (IV) and oral (PO) administration of methylone at 1 mg/kg (IV) and 10 mg/kg (PO) respectively, or test compounds (prodrugs of methylone) at 10 mg/kg (PO). Parent compound (methylone) was measured in plasma.
Samples were sent for method optimization and measurement of parent compound (methylone) via unique calibration lines and following acceptance QC's. Dose formulation concentrations were also measured, and PK parameters were determined (Cmax (ng/mL), Tmax (hr), Cl (ml/min/kg), Vdss (L/kg), t½(hr), AUC0-t (ng/mL*hr), AUC0-inf (ng/mL*hr), MIRT (hr), Bioavailability ([…]) where warranted) using WinNon Lin software. Data (including bioanalytical results and assay performance) were reported in a tabulated format.
Formulation for PO Administration: For PO dosing, the prodrug was formulated in 10% DMSO/20% PEG400/70% water to a concentration of 2 mg free metabolite material/mL. This provided a dose of 10 mg free metabolite/kg when the prodrug was administered PO in 5 mL/kg dosing volumes.
Formulation for IV administration: For IV dosing, rac-methylone was formulated as solution in saline to a concentration of 0.5 mg free metabolite material/mL. This provided a dose of 1 mg free metabolite/kg when administered IV in 2 mL/kg dosing volumes.
The pharmacokinetic properties of the synthesized methylone prodrugs after oral administration in a rat model were assessed. The concentration of methylone was measured in each rat at various sampling timepoints after IV or oral administration of rac-methylone or the synthesized methylone prodrugs to rats.
Dose formulations were made at equivalent concentrations of active compound (methylone) adjusted for molecular weight of the compounds. The synthesized methylone prodrugs or analogs were dosed at 10 mg/kg oral (PO) nominal dose. Nominal doses were used in PK parameter determinations. The parent compound (methylone) was dosed at 1 mg/kg intravenous (IV) and 10 mg/kg (PO).

[1] = 0.500 h after oral dosing of the prodrug, individual animals
[2] = 0.500 h after oral dosing of the prodrug, mean
[3] = 1.00 h after oral dosing of the prodrug, individual animals
[4] = 1.00 h after oral dosing of the prodrug, mean
[5] = 2.00 h after oral dosing of the prodrug, individual animals
[6] = 2.00 h after oral dosing of the prodrug, mean
[7] = 4.00 h after oral dosing of the prodrug, individual animals
[8] = 4.00 h after oral dosing of the prodrug, mean
[9] = 7.00 h after oral dosing of the prodrug, individual animals
[10] = 7.00 h after oral dosing of the prodrug, mean
[11] = 24.0 h after oral dosing of the prodrug, individual animals
[12] = 24.0 h after oral dosing of the prodrug, mean

| SMILES | Plasma Concentrations of metabolite methylone [1] | Plasma Concentrations of metabolite methylone [2] | Plasma Concentrations of metabolite methylone [3] | Plasma Concentrations of metabolite methylone [4] | Plasma Concentrations of metabolite methylone [5] | Plasma Concentrations of metabolite methylone [6] | Plasma Concentrations of metabolite methylone [7] | Plasma Concentrations of metabolite methylone [8] | Plasma Concentrations of metabolite methylone [9] | Plasma Concentrations of metabolite methylone [10] | Plasma Concentrations of metabolite methylone [11] | Plasma Concentrations of metabolite methylone [12] |
| --- | --- | --- | --- | --- | --- | --- | --- | --- | --- | --- | --- | --- |
| CC(C(=O)c1ccc2c(c1)OCO2)N(C)C(=O)CCCC(=O)OC(C)(C)C (stereo not drawn) [Compound 3C, tert-Butyl 4-{[2-(2H-1,3-benzodioxol-5-yl)-1-methyl-2-oxo-ethyl]-N-methylcarbamoyl}butyrate] | BLQ (Below Lower Limit of Quantification (0.5 ng/mL)) | BLQ (Below Lower Limit of Quantification (0.5 ng/mL)) | BLQ (Below Lower Limit of Quantification (0.5 ng/mL)) | BLQ (Below Lower Limit of Quantification (0.5 ng/mL)) | BLQ (Below Lower Limit of Quantification (0.5 ng/mL)) | BLQ (Below Lower Limit of Quantification (0.5 ng/mL)) | BLQ (Below Lower Limit of Quantification (0.5 ng/mL)) | BLQ (Below Lower Limit of Quantification (0.5 ng/mL)) | BLQ (Below Lower Limit of Quantification (0.5 ng/mL)) | BLQ (Below Lower Limit of Quantification (0.5 ng/mL)) | BLQ (Below Lower Limit of Quantification (0.5 ng/mL)) | BLQ (Below Lower Limit of Quantification (0.5 ng/mL)) |
| CC(C(=O)c1ccc2c(c1)OCO2)N(C)C(=O)[C@H](CCCCNC(=O)OC(C)(C)C)NC(=O)OC(C)(C)C (stereo partly drawn) [Compound 3E, tert-Butyl N-[(5S)-6-[[2-(1,3-benzodioxol-5-yl)-1-methyl-2-oxo-ethyl]-methyl-amino]-5-(tert-butoxycarbonylamino)-6-oxo-hexyl]carbamate] | BLQ (Below Lower Limit of Quantification (0.5 ng/mL)) | BLQ (Below Lower Limit of Quantification (0.5 ng/mL)) | BLQ (Below Lower Limit of Quantification (0.5 ng/mL)) | BLQ (Below Lower Limit of Quantification (0.5 ng/mL)) | BLQ (Below Lower Limit of Quantification (0.5 ng/mL)) | BLQ (Below Lower Limit of Quantification (0.5 ng/mL)) | BLQ (Below Lower Limit of Quantification (0.5 ng/mL)) | BLQ (Below Lower Limit of Quantification (0.5 ng/mL)) | BLQ (Below Lower Limit of Quantification (0.5 ng/mL)) | BLQ (Below Lower Limit of Quantification (0.5 ng/mL)) | BLQ (Below Lower Limit of Quantification (0.5 ng/mL)) | BLQ (Below Lower Limit of Quantification (0.5 ng/mL)) |
| CC1C(c2ccc3c(c2)OCO3)=N[C@@H](CCCCN)C(=O)N1C (stereo partly drawn) [Compound 4A, dihydrochloride] | BLQ (Below Lower Limit of Quantification (0.5 ng/mL)) | BLQ (Below Lower Limit of Quantification (0.5 ng/mL)) | BLQ (Below Lower Limit of Quantification (0.5 ng/mL)) | BLQ (Below Lower Limit of Quantification (0.5 ng/mL)) | BLQ (Below Lower Limit of Quantification (0.5 ng/mL)) | BLQ (Below Lower Limit of Quantification (0.5 ng/mL)) | BLQ (Below Lower Limit of Quantification (0.5 ng/mL)) | BLQ (Below Lower Limit of Quantification (0.5 ng/mL)) | BLQ (Below Lower Limit of Quantification (0.5 ng/mL)) | BLQ (Below Lower Limit of Quantification (0.5 ng/mL)) | BLQ (Below Lower Limit of Quantification (0.5 ng/mL)) | BLQ (Below Lower Limit of Quantification (0.5 ng/mL)) |
| CC(C(=O)c1ccc2c(c1)OCO2)N(C)C(=O)CCCC(=O)O (stereo not drawn) [Compound 8D, 4-{[2-(2H-1,3-Benzodioxol-5-yl)-1-methyl-2-oxo-ethyl]-N-methylcarbamoyl}butyric acid] | BLQ (Below Lower Limit of Quantification (0.5 ng/mL)) | BLQ (Below Lower Limit of Quantification (0.5 ng/mL)) | BLQ (Below Lower Limit of Quantification (0.5 ng/mL)) | BLQ (Below Lower Limit of Quantification (0.5 ng/mL)) | BLQ (Below Lower Limit of Quantification (0.5 ng/mL)) | BLQ (Below Lower Limit of Quantification (0.5 ng/mL)) | BLQ (Below Lower Limit of Quantification (0.5 ng/mL)) | BLQ (Below Lower Limit of Quantification (0.5 ng/mL)) | BLQ (Below Lower Limit of Quantification (0.5 ng/mL)) | BLQ (Below Lower Limit of Quantification (0.5 ng/mL)) | BLQ (Below Lower Limit of Quantification (0.5 ng/mL)) | BLQ (Below Lower Limit of Quantification (0.5 ng/mL)) |
| CC(C(=O)c1ccc2c(c1)OCO2)N(C)C(=O)N1CCC(N2CCCCC2)CC1 (stereo not drawn) [Compound 9A, N-[2-(1,3-Benzodioxol-5-yl)-1-methyl-2-oxo-ethyl]-N-methyl-4-(1-piperidyl)piperidine-1-carboxamide] | BLQ (Below Lower Limit of Quantification (0.5 ng/mL)) | BLQ (Below Lower Limit of Quantification (0.5 ng/mL)) | BLQ (Below Lower Limit of Quantification (0.5 ng/mL)) | BLQ (Below Lower Limit of Quantification (0.5 ng/mL)) | BLQ (Below Lower Limit of Quantification (0.5 ng/mL)) | BLQ (Below Lower Limit of Quantification (0.5 ng/mL)) | BLQ (Below Lower Limit of Quantification (0.5 ng/mL)) | BLQ (Below Lower Limit of Quantification (0.5 ng/mL)) | BLQ (Below Lower Limit of Quantification (0.5 ng/mL)) | BLQ (Below Lower Limit of Quantification (0.5 ng/mL)) | BLQ (Below Lower Limit of Quantification (0.5 ng/mL)) | BLQ (Below Lower Limit of Quantification (0.5 ng/mL)) |
| COCCOC(=O)N(C)C(C)C(=O)c1ccc2c(c1)OCO2 (stereo not drawn) [PE, 2-Methoxyethyl N-[2-(1,3-benzodioxol-5-yl)-1-methyl-2-oxo-ethyl]-N-methyl-carbamate] | BLQ (Below Lower Limit of Quantification (0.5 ng/mL)) | BLQ (Below Lower Limit of Quantification (0.5 ng/mL)) | BLQ (Below Lower Limit of Quantification (0.5 ng/mL)) | BLQ (Below Lower Limit of Quantification (0.5 ng/mL)) | BLQ (Below Lower Limit of Quantification (0.5 ng/mL)) | BLQ (Below Lower Limit of Quantification (0.5 ng/mL)) | BLQ (Below Lower Limit of Quantification (0.5 ng/mL)) | BLQ (Below Lower Limit of Quantification (0.5 ng/mL)) | BLQ (Below Lower Limit of Quantification (0.5 ng/mL)) | BLQ (Below Lower Limit of Quantification (0.5 ng/mL)) | BLQ (Below Lower Limit of Quantification (0.5 ng/mL)) | BLQ (Below Lower Limit of Quantification (0.5 ng/mL)) |
